Assay results from patent US20190381084A1, “COMBINATION THERAPY” (NUCANA BIOMED LIMITED, priority 2015, published 2019).
Like-named read-outs stand apart in the source and are kept apart here.

Tests used:
[1] = system: 5637; assay: Single agent cytotoxicity assay (CellTiter-Glo); type: cell-based; details: CTG assay, 72 h
Method: (§1) A2780, SK-OV-3, OVCAR-3, NCI-H460, NCI-H1975, NCI-H2122, 5637 and HT1376 were cultured in RPMI Medium 1640 (Invitrogen-22400105) supplemented with 10% fetal bovine serum (FBS; Invitrogen-10099141). All the cell lines were maintained in a humidified incubator at 37° C. with 5% CO2. Cell culture media and supplements were purchased from Invitrogen, and tissue culture flasks were purchased from Corning, 96-well plates and 384-well plates were purchased from Greiner. CellTiter-Glo Luminescent Cell Viability Assay kits were purchased from Promega (Promega-G7573), cells counter Vi-Cell was purchased from Beckman, detection instrument Envision was purchased from PerkinElmer.
(§2) Paclitaxcel (used as a reference) and cisplatin were purchased from SELLECK, and they were of highest purity available. All compounds attained solubility in DMSO and when diluted into culture media. DMSO, compounds solutions and culture media were warmed to 37° C. for the solution preparation and dilutions.
(§3) Eight cell lines were allowed to adhere to 96-well plates overnight (100 μL/well), for drug treatments with 3.16 fold dilution, 9 dose points, triplicates or vehicle control, compound stock solutions were prepared in DMSO and added to the wells to give the indicated final drug concentrations. Final DMSO concentration was 0.5%. Cellular ATP concentrations were assessed by using the CellTiter-Glo Cell Viability Assay as per the manufacturer's instructions 72 h after drug addition.
(§4) Stage 1: Single Agent IC50 Determination
(§5) In Stage 1 the IC50 (using 5 or more concentrations) of each individual compound cisplatin, carboplatin, gemcitabine and NUC-1031) in the relevant cell lines was determined.

[2] = system: A2780; assay: Single agent cytotoxicity assay (CellTiter-Glo); type: cell-based; details: CTG assay, 72 h; for IC50: Homo sapiens
Method: as §1, §2, §3, §4, §5

[3] = system: HT1376; assay: Single agent cytotoxicity assay (CellTiter-Glo); type: cell-based; details: 72 h; for IC50: Homo sapiens, HT-1376, CTG assay
Method: as §1, §2, §3, §4, §5

[4] = system: NCI-H1975; assay: Single agent cytotoxicity assay (CellTiter-Glo); type: cell-based; details: CTG assay, 72 h; for IC50: Homo sapiens
Method: as §1, §2, §3, §4, §5

[5] = system: NCI-H460; assay: Single agent cytotoxicity assay (CellTiter-Glo); type: cell-based; details: CTG assay, 72 h; for IC50: Homo sapiens
Method: as §1, §2, §3, §4, §5

[6] = system: OVCAR-3; assay: Single agent cytotoxicity assay (CellTiter-Glo); type: cell-based; details: CTG assay, 72 h; for IC50: Homo sapiens
Method: as §1, §2, §3, §4, §5

[7] = system: SK-OV-3; assay: Single agent cytotoxicity assay (CellTiter-Glo); type: cell-based; details: 72 h; for IC50: Homo sapiens, SK-OV-3, SK-OV3, CTG assay
Method: as §1, §2, §3, §4, §5

[8] = ProGem1 phase I study in subjects with advanced solid malignancies; type: in vivo, human
Description: ProGem1 was a first-time-in-human (FTIH), phase I, open label, two stage study to investigate the safety, tolerability, clinical efficacy, pharmacokinetics (PK) and pharmacodynamics (PD) of NUC-1031 given in two parallel dosing schedules in subjects with advanced solid malignancies (EudraCT Number: 2011-005232-26). Subjects had the following tumour types at study entry: colorectal cancer (7 subjects), unknown primary (3), ovarian cancer (12), breast cancer (4), pancreatic cancer (9), cholangiocarcinoma (7), endometrial cancer (3), cervical cancer (2), lung cancer (7), mesothelioma (3), oesophageal cancer (3), cancer of the fallopian tube (1), trophoblast (1), renal cancer (1), gastric cancer (1), anal cancer (1), cancer of the thymus (1) and osteosarcoma (1).

C[C@H](NP(=O)(OC[C@H]1O[C@@H](n2ccc(N)nc2=O)C(F)(F)[C@@H]1O)Oc1ccccc1)C(=O)OCc1ccccc1 (stereo partly drawn) [NUC-1031, 2′-Deoxy-2′,2′-difluoro-D-cytidine-5′-O-[phenyl (benzoxy-L-alaninyl)] phosphate]
Max Inhibition_% [1]: 77.88% | IC50 ([1]; read-out: Ab IC50): 200 nM | IC50 ([1]; read-out: relative IC50): 120 nM | Max Inhibition_% [2]: 79.15% | IC50 ([2]; read-out: Ab IC50): 25 nM | IC50 ([2]; read-out: relative IC50): 16 nM | Max Inhibition_% ([3]; CTG assay): −2.54% | IC50 ([3]; read-out: Ab IC50): > 1980 nM | IC50 ([3]; read-out: relative IC50): > 1980 nM | Max Inhibition_% [4]: 37.91% | IC50 ([4]; read-out: Ab IC50): > 1980 nM | IC50 ([4]; read-out: relative IC50): 370 nM | Max Inhibition_% [5]: 91.98% | IC50 ([5]; read-out: Ab IC50): 40 nM | IC50 ([5]; read-out: relative IC50): 40 nM | Max Inhibition_% [6]: 11.76% | IC50 ([6]; read-out: Ab IC50): > 1980 nM | IC50 ([6]; read-out: relative IC50): 200 nM | IC50 ([7]; read-out: Ab IC50): 70 nM | IC50 ([7]; read-out: relative IC50): 60 nM | Max Inhibition_% ([7]; SK-OV3, CTG assay): 61.59% | anti-tumour activity ([8]; patients with advanced progressive cancers who exhausted standard options): anti-tumour activity | levels of toxic metabolite dFdU released relative to gemcitabine ([8]; relative to levels normally associated with gemcitabine): less than half
